Laboratory results published in patent publication US20220289731A1, “MELANOCORTIN-4 RECEPTOR AGONISTS” (LG CHEM, LTD., priority 2019, published 2022).
Structures can show the parent of a compound that is named as a salt.

Key:
MC4R [1] = target: T1, MC4R (Homo sapiens, UniProt P32245); test: Luciferase assay (HEK MC4R-Luc, CRE-LUC); format: cell-based; design: expressed in transfected cells; conditions: HEK MC4R-Luc cells, 5 h incubation
Description: In order to measure the agonist ability against MC4R (melanocortin-4 receptor), a cell line that permanently expresses the luciferase gene (CRE-LUC) under the control of MC4R and CRE (cAMP response element) was established. After a mammalian cell expression vector (pCDNA3 (Neo)) (Invitrogen) containing the MC4R gene was prepared, human embryonic kidney (HEK) cell lines were transformed by using Lipofectamine 2000 (Invitrogen) together with a vector (pCRE-Luc)(Stratagen) expressing a luciferase gene (CRE-LUC) under the control of a cAMP response element (CRE). Transformed cell lines (HEK MC4R-Luc) were incubated in a 37° C. incubator in the presence of 5% CO2 for 24 hours by using Dulbecco's Modified Eagles Medium (DMEM) containing 10% Heat-Inactivated Fetal Bovine Serum (GIBCO/BRL). The cell lines were incubated for four days in the presence of Dulbecco's Modified Eagles Medium (DMEM) containing 10 ml of selection medium (10% Heat-Inactivated Fetal Bovine Serum (GIBCO/BRL), 100 unit/ml of penicillin (GIBCO/BRL), 100 unit/ml of streptomycin (GIBCO/BRL), 800 μg/ml of Geneticin (G418) (GIBCO/BRL). The process of removing cells killed by the selection medium by replacing the medium with 10 ml of a new selection medium was repeated three times, once every 4 days. Individual colonies formed by the finally selected and propagated clones were transferred under a microscope to a 24-well cell culture plate containing 1 ml of selection medium per well and incubated for 4 days. Forskolin (SIGMA) was treated to a final concentration of 10 μM, and then incubated for five hours in a 37° C. incubator in the presence of 5% CO2. Each well was treated with 50 μl of a Bright-Glo luciferase reagent (Promega) and left at room temperature for 15 minutes, and then the luminescence of each well was measured by using a luminometer (Victor).
HEK MC4R-Luc cells were added to each well of a 96-well luminometer cell culture plate (Costar) to a size of 2.5×10^4 cells in 100 μl of a culture medium and then incubated in a 37° C. incubator in the presence of 6% CO2 for 18 hours. […] Each well was treated with 50 μl of a Bright-Glo luciferase reagent (Promega) and left at room temperature for five minutes, and then the luminescence of each well was measured by using a luminometer (Victor). […] EC0.5 MSH is expressed as a concentration that induces 50% of the maximum amount of luminescence that can be induced by NDP-α-MSH, and EC50 is expressed as a concentration that induces 50% of the maximum amount of luminescence that can be induced by each agonist. The measurements were measured using statistical software (Prizm).
Target sequence in this assay (P32245 whole entry, species assumed): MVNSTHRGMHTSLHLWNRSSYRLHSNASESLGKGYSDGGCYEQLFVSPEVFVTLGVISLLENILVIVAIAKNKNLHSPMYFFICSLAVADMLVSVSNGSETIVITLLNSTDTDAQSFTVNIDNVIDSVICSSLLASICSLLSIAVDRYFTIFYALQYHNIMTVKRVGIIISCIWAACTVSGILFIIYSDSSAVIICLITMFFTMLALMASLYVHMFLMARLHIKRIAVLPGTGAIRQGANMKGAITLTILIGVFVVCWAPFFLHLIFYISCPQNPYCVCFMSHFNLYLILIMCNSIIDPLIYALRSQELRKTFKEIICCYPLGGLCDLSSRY

MC4R [2] = target: T1, MC4R; test: Binding affinity, 125I-NDP-α-MSH displacement on membranes; design: expressed in transfected cells; host or cells: HEK-293 cells; membranes collected; conditions: HEK-293 MC4R membrane, 0.02 nM 125I-NDP-α-MSH
Text: Five subtypes of melanocortin receptor (MCR) in vivo are known, and it is known that MC4R, which is Subtype 4, is involved in energy metabolism and weight control. Since other MCR subtypes are involved in the regulation of various functions in vivo such as skin pigmentation, energy homeostasis, and exocrine functions, securing selectivity for MC4R of MC4R agonist compounds is very important in preventing possible side effects in the future. Therefore, the receptor binding abilities of MC4R agonists for each MCR subtype were measured.
After the CHO-K1 cell line expressing human recombinant MC1R and the HEK-293 cell lines expressing MC3R, MC4R and MCSR were established, membranes were collected from each cell line. In a 96-well cell culture plate, 3 μg MC1R membrane and 0.04 nM ^125I-NDP-α-MSH per well were reacted at 37° C. for two hours. 3 μg MC3R and MCSR membrane and 0.035 nM ^125I-NDP-α-MSH were reacted at 37° C. for one hour, and 3.12 μg MC4R membrane and 0.02 nM ^125I-NDP-α-MSH were reacted at 37° C. for two hours. At this time, 25 mM HEPES-KOH adsorption buffer (pH 7.0) containing MCR agonist diluted at each step concentration was added to each well and reacted. The reacted solution was transferred to a filter and washed with an adsorption buffer, and then radioactivity was measured. The value excluding the non-specific binding amount in the presence of 1 μM (MC1R) and 3 μM (MC3R, MC4R, MCSR) of NDP-α-MSH from each total binding amount was used as specific binding amounts of ^125I-NDP-α-MSH. The degree to which the ^125I-NDP-α-MSH specific binding was inhibited by the agonist diluted at each step concentration was measured. IC50 was expressed as the concentration of each agonist that inhibited specific binding of 50% of ^125I-NDP-α-MSH.
Target sequence in this assay (P32245 whole entry): as the sequence (P32245 whole entry, species assumed) above

MC4R [3] = target: T1, MC4R; test: cAMP assay (cAMP Hunter Gs-coupled CHO-K1 cell line); format: cell-based; design: expressed in transfected cells; host or cells: CHO-K1 (cAMP Hunter Gs-coupled cell line); conditions: CHO-K1 cells overexpressing MC4R, 30 min at 37° C.
Text: The melanocortin receptor is a type of G-protein coupled receptor (GPCR), and the main role of G-protein is to activate secondary transducers to regulate cellular responses to many physiological stimuli through signal transduction. MC4R is a Gs-coupled receptor, and it is known that if MC4R interacts with an agonist, adenylate cyclase (AC) is activated to increase the concentration of cyclic AMP (cAMP), which is one of the secondary transducers in cells. Therefore, it is possible to evaluate the activity of melanocortin receptors by measuring the generation of cAMP signals.
After cAMP Hunter Gs-coupled cell lines (CHO-K1 cell line) in which each of MC1R, MC3R, MC4R and MCSR was overexpressed were established so that the increase in the cAMP level in cells due to agonist reaction was measurable, the cells were inoculated into each well of a white cell culture plate and incubated for 24 hours in a 37° C. incubator in the presence of 5% CO2. After the incubation, the medium was removed, and 15 μl of a 2:1 HBBS/10 mM HEPES:cAMP XS+Ab reagent was added. After 5 μl of the sample diluted 4 times with buffer was added, the vehicle concentration was set to 1%, and the MC4R agonist compound diluted at each step concentration was added, followed by reaction at 37° C. for 30 minutes. The activity (%) of each agonist compound is expressed as 100%×(average RLU value of sample−average RLU value of vehicle control)/(average RLU value of max control−average RLU value of vehicle control), and the value was analyzed by CBIS data analysis suite (ChemInnovation, CA).
Target sequence in this assay (P32245 whole entry, species assumed): as above

MC4R [4] = target: T1, MC4R; test: β-arrestin assay (Pathhunter eXpress U2OS cell line); format: cell-based; design: expressed in transfected cells; host or cells: U2OS (Pathhunter eXpress β-arrestin cell line); conditions: U2OS cells, 90 min at 37° C.
Text: The melanocortin receptor is a type of G-protein coupled receptor (GPCR) and regulates various physiological responses by transducing signals from many neurotransmitters. When GPCR is phosphorylated, β-arrestin is bound to the phosphorylated part of the receptor and plays an important role in activating various signaling pathways in cells through interaction with other proteins. It is known that, when the melanocortin receptor interacts with an agonist, β-arrestin is mobilized and is involved in the β-arrestin-mediated signaling pathway. Therefore, the activity of the melanocortin receptor can be evaluated through the measurement of β-arrestin.
A Pathhunter eXpress β-arrestin cell line (U2OS cell line) in which Prolink (PK)-tagged MC1R, MC3R, MC4R, MC5R and Enzyme acceptor (EA)-tagged β-arrestin were expressed together was established. When the MCR-PK portion of this cell line is activated, β-arrestin-EA is mobilized, and enzyme acceptor (EA) and Prolink (PK), which are the β-galactosidase enzyme fragments, interact. The activated enzyme hydrolyzes the substrate by β-galactosidase activity to produce a chemiluminescent signal, so that the activity can be measured. After the Pathhunter eXpress β-arrestin cell line (U2OS cell line) was incubated, the cells were inoculated into each well of the cell culture plate and incubated for 48 hours in a 37° C. incubator in the presence of 5% CO2. After the incubation, 5 μl of the sample diluted 5 times with buffer was added, the vehicle concentration was set to 1%, and the MC4R agonist compound diluted at each step concentration was added, followed by reaction at 37° C. for 90 minutes. The activity (%) of each agonist compound is expressed as 100%×(average RLU value of sample−average RLU value of vehicle control)/(average maximum value of control ligand−average RLU value of vehicle control), and the value was analyzed by CBIS data analysis suite (ChemInnovation, CA).
Target sequence in this assay (P32245 whole entry): as the sequence (P32245 whole entry, species assumed) above
Target sequence in this assay (P32121 whole entry partner): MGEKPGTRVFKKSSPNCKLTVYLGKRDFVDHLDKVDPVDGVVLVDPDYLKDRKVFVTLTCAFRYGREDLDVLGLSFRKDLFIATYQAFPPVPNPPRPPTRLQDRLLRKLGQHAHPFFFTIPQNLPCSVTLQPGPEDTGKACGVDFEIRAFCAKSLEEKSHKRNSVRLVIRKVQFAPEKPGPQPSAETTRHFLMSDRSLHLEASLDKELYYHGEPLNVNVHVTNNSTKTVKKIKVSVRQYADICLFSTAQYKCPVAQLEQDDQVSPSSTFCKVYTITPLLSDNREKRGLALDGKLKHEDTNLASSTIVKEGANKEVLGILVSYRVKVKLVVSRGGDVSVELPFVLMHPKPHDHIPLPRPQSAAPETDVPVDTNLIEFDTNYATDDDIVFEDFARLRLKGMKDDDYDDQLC

[5] = system: mouse obesity model induced by high fat diet; test: Mouse obesity model induced by high fat diet; format: in vivo, C57BL/6Ntaconic mice; conditions: Day 12, 10 mg/kg, oral once a day, high-fat-diet obese mice
Description: The effect of melanocortin-4 receptor agonists on obesity was evaluated by using the mouse obesity model induced with a high fat diet.
Five-week-old male C57BL/6Ntaconic mice were fed with a 60 kcal % fat diet (D12492, Research Diet.) for 15 weeks to induce obesity. The compound of Example 1, the compounds of the comparative examples (A95 and A96), and sibutramine as a positive control were prepared in distilled water and orally administered to […] mouse obesity models induced by a high-fat diet once a day from day 1 to day 16. From Day 1 to Day 16, the body weight was measured once a day, the dietary intake was measured five times a week, and drinking water intake was measured twice a week. Blood glucose and glycated hemoglobin were measured on Day 15, and all animals were sacrificed on Day 17. Blood was collected through the abdominal vena cava, and the liver and epididymal adipose tissues were removed and weighed. The collected blood was placed in a heparin tube and centrifuged to separate plasma, and then plasma biochemical analysis was performed.

| Compound | EC50 (MC4R [1]) [nM] | Ki (MC4R [2]) [nM] | EC50 (MC4R [3]) [nM] | EC50 (MC4R [4]) [nM] | Difference in weight change rate to vehicle [5] [%] |
| --- | --- | --- | --- | --- | --- |
| CCC(=O)N([C@H]1C[C@@H](C(=O)N2CCOCC2)N(C(=O)[C@@H]2CN(C(C)(C)C)C[C@H]2c2ccc(Cl)cc2)C1)[C@H]1CC[C@@H](C)CC1 [Example 2, N-((3S,5S)-1-((3S,4R)-1-(tert-butyl)-4-(4-chlorophenyl)pyrrolidine-3-carbonyl)-5-(morpholine-4-carbonyl)pyrrolidin-3-yl)-N-((1s,4R)-4-methylcyclohexyl)propionamide hydrochloride] | 1.07 | 110 | 50.3 | 8.7 |  |
| CC(C)(C)C(=O)N([C@H]1C[C@@H](C(=O)N2CCOCC2)N(C(=O)[C@@H]2CN(C(C)(C)C)C[C@H]2c2ccc(Cl)cc2)C1)[C@H]1CC[C@@H](C)CC1 [Example 3, N-((3S,5S)-1-((3S,4R)-1-(tert-butyl)-4-(4-chlorophenyl)pyrrolidine-3-carbonyl)-5-(morpholine-4-carbonyl)pyrrolidin-3-yl)-N-((1s,4R)-4-methylcyclohexyl)pivalamide hydrochloride] | 0.675 | 24 | 22.7 | 3.3 |  |
| CC(C)CC(N(C)C)C1(c2ccc(Cl)cc2)CCC1 (stereo not drawn) [Sibutramine] |  |  |  |  | −6.8 |
